One data set concerns Alternaria solani. In words: Alternaria test (tomato)/preventive. Particulars: 500 ppm, preventive, evaluated 7 days after inoculation. The data set is classed as in vivo.
A further data set has as its system Sphaerotheca fuliginea. In words: Sphaerotheca test (cucumber)/preventive. The conditions noted are these: 500 ppm, preventive, evaluated 7 days after inoculation. The data set is classed as in vivo.
The nature of data set [1]: logP by HPLC on reversed-phase column (EEC Directive 79/831 Annex V.A8). The conditions noted are these: EEC Directive 79/831 Annex V.A8.
Another data set concerns Puccinia triticina. In words: Puccinia triticina-test (wheat)/preventive. It is filed as in vivo. Particulars: 500 ppm, preventive, evaluated 8 days after inoculation.
A further data set deals with Pyrenophora teres. In words: Pyrenophora teres-test (barley)/preventive. The data set is classed as in vivo. The conditions noted are these: 500 ppm, preventive, evaluated 8 days after inoculation.
The subject of the next data set is Uromyces appendiculatus. The conditions noted are these: 100 ppm, beans, preventive, evaluated 10 days after inoculation.
The next data set has as its system Botrytis cinerea. In words: Botrytis test (beans)/preventive. Particulars: 100 ppm, preventive, lesion size 2 days after inoculation.
The subject of another data set is Venturia inaequalis. In words: Venturia test (apples)/preventive. The conditions noted are these: 100 ppm, preventive, evaluated 10 days after inoculation.
In data set [2] the test system is Fusarium nivale (var. majus). In words: Fusarium nivale (var. majus)-test (wheat)/preventive. The conditions noted are these: 500 ppm, preventive, evaluated 5 days after inoculation.
Description: Fusarium Nivale (Var. Majus)-Test (Wheat)/Preventive
Solvent: 49 parts by weight of N,N-dimethylacetamide
Emulsifier: 1 part by weight of alkylaryl polyglycol ether
After the spray coating has been dried, the plants are slightly injured by using a sandblast and afterwards they are sprayed with a conidia suspension of Fusarium nivale (var. majus).
The plants are placed in the greenhouse under a translucent incubation cabinet at a temperature of approximately 10° C. and a relative atmospheric humidity of approximately 100%.
The test is evaluated 5 days after the inoculation.
The mark [3] stands for this setting: HPLC on reversed-phase column (C 18).
Where [4] appears, read: HPLC on a reversed-phase column (C 18).

Like-named read-outs stand apart in the source and are kept apart here.

Regarding `Cn1nc(C(F)F)c(C(=O)Nc2ccccc2C(C)(C)C)c1F` [Example 3], the Efficacy worked out at 94% in the data set on Alternaria solani and 98% in the data set with Sphaerotheca fuliginea. The compound also had a logP in [1] (setting [3]) of 2.98.

In the case of `CCCC(C)c1ccccc1NC(=O)c1c(C(F)F)nn(C)c1F` (stereo not drawn) [Example 8], the Efficacy was 95% in the data set on Alternaria solani; 100% in the data set on Puccinia triticina; 100% in the data set with Pyrenophora teres; 100% in the data set with Uromyces appendiculatus; 98% in the data set with Botrytis cinerea; 100% in the data set with Venturia inaequalis. The compound further gave a logP in data set [1] (setting [3]) of 3.55.

For the compound `CCCC(C)c1ccccc1NC(=O)c1c(C(F)F)nn(C)c1Cl` (stereo not drawn) [Example 9], the Efficacy is on record as 95% in the data set on Alternaria solani; 100% in the data set with Sphaerotheca fuliginea; 100% in the data set with Puccinia triticina; 100% with Pyrenophora teres; 100% in the data set with Uromyces appendiculatus; 100% in the data set with Venturia inaequalis. In addition, the Efficacy in data set [2] amounted to 100%. In data set [1] (setting [3]), this compound showed a logP of 3.77.

With `CC1CCCC(c2ccccc2NC(=O)c2c(C(F)F)nn(C)c2Cl)C1` (stereo not drawn) [Example 53], the Efficacy with Alternaria solani was determined as 100%; with Sphaerotheca fuliginea, 100%; in the data set with Uromyces appendiculatus, 100%; in the data set with Botrytis cinerea, 94%; in the data set with Venturia inaequalis, 100%. The compound further had a logP in data set [1] (setting [3]) of 4.29.

`Cn1nc(C(F)F)c(C(=O)Nc2cccc3c2CCC3)c1Cl` [Example 55]: the Efficacy was 100% in the data set on Puccinia triticina, 71% with Pyrenophora teres and 83% in data set [2]. Moreover, the logP in data set [1] (setting [3]) came to 3.19.

Regarding `CC1CC(C)(C)c2cccc(NC(=O)c3c(C(F)F)nn(C)c3Cl)c21` (stereo not drawn) [Example 65], the Efficacy in the data set with Alternaria solani came to 80%; with Puccinia triticina, 100%; in the data set on Pyrenophora teres, 100%; with Uromyces appendiculatus, 100%; with Venturia inaequalis, 98%; in data set [2], 86%. This compound also registered a logP in data set [1] (setting [3]) of 4.04.

Consider `Cn1nc(C(F)F)c(C(=O)Nc2ccccc2-c2ccccc2)c1F` [Example 73], for which the Efficacy in the data set on Alternaria solani stood at 90%; with Sphaerotheca fuliginea, 75%. In [1] (setting [3]), this compound yielded a logP of 3.25.

`Cc1ccccc1-c1ccccc1NC(=O)c1c(C(F)F)nn(C)c1F` [Example 75]: the figures for the Efficacy in the data set on Alternaria solani, in the data set on Puccinia triticina and with Pyrenophora teres were 94%, 70% and 100%, respectively. Also, in data set [1] (setting [3]), the logP was determined as 3.74.

For `Cn1nc(C(F)F)c(C(=O)Nc2ccc(F)cc2-c2ccc(F)cc2)c1F` [Example 77], the Efficacy with Alternaria solani and with Sphaerotheca fuliginea was 95% throughout. This compound also registered a logP in data set [1] (setting [3]) of 3.16.

Regarding `Cn1nc(C(F)F)c(C(=O)Nc2ccccc2-c2ccc(F)cc2)c1Cl` [Example 78], the Efficacy in the data set on Alternaria solani came out at 90%; in the data set with Sphaerotheca fuliginea it was 75%. This compound also showed a lipophilicity (logP) in [1] (setting [3]) of 3.40.

Take `Cn1nc(C(F)F)c(C(=O)Nc2ccc(F)cc2-c2ccc(F)cc2)c1Cl` [Example 79]: the Efficacy in the data set on Alternaria solani came to 90%; in the data set on Sphaerotheca fuliginea, 95%. Moreover, the logP in data set [1] (setting [3]) was 3.41.

With `Cn1nc(C(F)F)c(C(=O)Nc2ccccc2-c2ccc(F)cc2)c1F` [Example 80], the Efficacy is 95% in the data set on Alternaria solani and 98% in the data set with Sphaerotheca fuliginea. This compound also registered a logP in [1] (setting [3]) of 3.20.

Turning to `Cn1nc(C(F)F)c(C(=O)Nc2ccccc2-c2cccc(Cl)c2)c1Cl` [Example 87], the Efficacy with Alternaria solani and in the data set with Sphaerotheca fuliginea was 95% throughout. Further, in data set [1] (setting [3]), the logP is 3.87.

With `Cn1nc(C(F)F)c(C(=S)Nc2ccccc2-c2ccc(Cl)c(F)c2)c1Cl` [Example 101], the Efficacy with Alternaria solani stood at 80%; with Sphaerotheca fuliginea it was 95%; in the data set on Puccinia triticina, 100%; in the data set with Pyrenophora teres it was 100%; in data set [2], 100%. The same compound returned a logP in [1] (setting [3]) of 3.92.

Take `Cn1nc(C(F)F)c(C(=O)Nc2ccccc2-c2cc(F)c(F)c(F)c2)c1F` [Example 104]: the Efficacy in the data set on Puccinia triticina, with Pyrenophora teres, in the data set on Uromyces appendiculatus (listed as 104 from this invention), with Botrytis cinerea and in the data set with Venturia inaequalis was 100% throughout. The compound further yielded a logP in data set [1] (setting [3]) of 3.30.

Regarding `Cn1nc(C(F)F)c(C(=O)Nc2ccccc2-c2cc(F)c(F)cc2F)c1F` [Example 107], the values for the Efficacy with Alternaria solani and in the data set on Sphaerotheca fuliginea were 100% and 88%, respectively. The compound also returned a logP in data set [1] (setting [3]) of 3.25.

As to `Cn1nc(C(F)F)c(C(=O)Nc2ccccc2-c2cc(F)c(F)cc2F)c1Cl` [Example 108], the Efficacy in the data set on Alternaria solani is listed as 100%; with Sphaerotheca fuliginea it was 93%; in the data set on Uromyces appendiculatus it was 100%; in the data set with Botrytis cinerea, 99%; in the data set on Venturia inaequalis, 100%. The same compound returned a logP in data set [1] (setting [3]) of 3.46.

As to `Cn1nc(C(F)F)c(C(=O)Nc2c(F)cccc2-c2ccc(Cl)c(Cl)c2)c1F` [Example 115], the Efficacy in the data set on Alternaria solani was found to be 95%; in the data set with Puccinia triticina, 88%; in the data set with Uromyces appendiculatus, 100%; with Botrytis cinerea, 94%; with Venturia inaequalis, 100%; in data set [2], 86%. This compound also displayed a logP in data set [1] (setting [3]) of 3.50.

`Cn1nc(C(F)F)c(C(=O)Nc2ccccc2-c2ccc(Cl)c(Cl)c2)c1Cl` [Example 126]: the Efficacy in the data set on Alternaria solani was found to be 89%; with Sphaerotheca fuliginea, 100%; with Puccinia triticina it was 100%; in the data set on Pyrenophora teres it was 100%; in the data set with Uromyces appendiculatus it was 96%; with Venturia inaequalis, 75%. This compound showed an Efficacy in data set [2] of 100%. In data set [1] (setting [3]), this compound had a logP of 4.14.

With `Cn1nc(C(F)F)c(C(=O)Nc2ccccc2-c2ccc(-c3ccccc3)cc2)c1F` [Example 137], the Efficacy in the data set with Alternaria solani is on record as 95%; in the data set on Sphaerotheca fuliginea, 100%; in the data set with Puccinia triticina, 100%; with Pyrenophora teres, 93%; in the data set on Uromyces appendiculatus, 99%; in the data set on Venturia inaequalis, 100%. Besides, in [1] (setting [3]), the logP came to 4.27.

Consider `Cn1nc(C(F)F)c(C(=O)Nc2ccccc2-c2ccc(-c3ccccc3)cc2)c1Cl` [Example 138], for which the Efficacy in the data set with Sphaerotheca fuliginea stood at 100%; with Puccinia triticina, 100%; with Pyrenophora teres it was 86%. The logP in data set [1] (setting [3]) is reported as 4.61.

Turning to `Cn1nc(C(F)F)c(C(=O)Nc2ccccc2-c2ccc(Br)cc2)c1Cl` [Example 140], the Efficacy in the data set on Puccinia triticina is 100%; with Pyrenophora teres, 100%; in the data set with Uromyces appendiculatus, 100%; in the data set on Botrytis cinerea, 98%; in the data set on Venturia inaequalis, 100%; in [2], 86%. The logP in [1] (setting [3]) is given as 3.88.

Turning to `Cn1nc(C(F)F)c(C(=S)Nc2ccccc2-c2ccc(Br)cc2)c1Cl` [Example 141], the results for the Efficacy in the data set on Alternaria solani and with Sphaerotheca fuliginea were 70% and 95%, respectively. For the same compound, in data set [1] (setting [3]), the logP is 3.96.

`Cn1nc(C(F)F)c(C(=O)Nc2ccccc2-c2ccc(Br)cc2Cl)c1Cl` [Example 154]: the Efficacy in the data set on Alternaria solani stood at 95%; in the data set on Sphaerotheca fuliginea, 100%; in the data set on Uromyces appendiculatus it was 100%; in the data set on Botrytis cinerea, 78%; in the data set with Venturia inaequalis, 100%. In addition, the logP in data set [1] (setting [3]) amounted to 4.16.

For `Cn1nc(C(F)F)c(C(=O)Nc2ccccc2-c2ccc(Br)cc2Cl)c1F` [Example 155], the Efficacy in the data set on Alternaria solani came out at 95%; with Uromyces appendiculatus, 100%; with Botrytis cinerea, 100%; in the data set on Venturia inaequalis it was 100%. Also, the logP in data set [1] (setting [3]) is 3.85.

Take `CC(C)Oc1cccc(NC(=O)c2c(C(F)F)nn(C)c2Cl)c1` [Example 169]: the Efficacy with Puccinia triticina was 100%; with Pyrenophora teres it was 100%; in the data set with Uromyces appendiculatus it was 100%; with Venturia inaequalis, 96%; in data set [2], 71%. In data set [1] (setting [3]), the logP was 2.98.

As for `C=C(C)COc1cccc(NC(=O)c2c(C(F)F)nn(C)c2F)c1` [Example 176], the Efficacy (in the data set with Puccinia triticina; in the data set with Pyrenophora teres; in [2]) was 100% throughout. The logP in [1] (setting [3]) was 3.15.

In the data set on Uromyces appendiculatus, `Cn1nc(C(F)F)c(C(=O)Nc2cccc(OC(F)(F)F)c2)c1Cl` [Example 181] registered an Efficacy of 100%. The logP in [1] (setting [3]) is 3.25.

For the compound `Cn1nc(C(F)F)c(C(=O)Nc2cccc(OC(F)(F)C(F)F)c2)c1Cl` [Example 188], the Efficacy with Puccinia triticina was 100%; in the data set with Pyrenophora teres, 92%; with Uromyces appendiculatus, 100%. For the same compound, the logP in [1] (setting [3]) worked out at 3.09.

In turn, `Cc1cc(Cl)ccc1Oc1cccc(NC(=O)c2c(C(F)F)nn(C)c2F)c1` [Example 254] had an Efficacy in the data set on Alternaria solani of 70%. This compound displayed a logP in data set [1] (setting [4]) of 4.19.

For `Cn1nc(C(F)F)c(C(=O)Nc2cccc(Oc3cccc(C(F)(F)F)c3)c2)c1Cl` [Example 255], the Efficacy with Puccinia triticina was 94%; in the data set on Uromyces appendiculatus it was 73%; in data set [2] it was 100%. Besides, the logP in [1] (setting [4]) came to 3.89.

A word on the logP: it is the decadic logarithm of the partition coefficient of the neutral form, usually between octanol and water.

Values taken from patent publication US9375004B2 (Bayer Intellectual Property GmbH, priority 2010, dated 2016).
